Experimental data from US10851079B2, “Piperidine derivative” (OTSUKA PHARMACEUTICAL CO., LTD., priority 2016, dated 2020).

Test system: Mycobacteria tuberculosis (M. tuberculosis H37Rv and M. tuberculosis Kurono)
Assay: Antibacterial test (agar plate dilution method), minimum inhibitory concentration
Type: cell-based
Settings: Mycobacterium tuberculosis, 7H11 agar medium, about 10^6 CFU/mL inoculum, incubation at 37° C., strains H37Rv and Kurono, read-out: minimum inhibitory concentration against Mycobacteria tuberculosis

| Structure (SMILES) | MIC [µg/mL] |
| --- | --- |
| OC1(COc2cccc3cnccc23)CCN(c2ccc(Cl)cc2F)CC1 [Example 1, 1-(4-chloro-2-fluorophenyl)-4-(isoquinolin-5-yloxymethyl)piperidin-4-ol] | ≤ 3.13 |
| O[C@@H]1CN(c2c(F)cc(Cl)cc2F)CC[C@@]1(O)COc1ccc(Cl)c2cccnc12 [Example 6, (3R,4R)-1-(4-chloro-2,6-difluorophenyl)-4-[(5-chloroquinolin-8-yl)oxymethyl]piperidine-3,4-diol] | ≤ 3.13 |
| CC(C)(C)N1Cc2c(OC[C@]3(O)CCN(c4c(F)cc(Cl)cc4F)C[C@H]3O)cccc2C1=O [Example 9] | ≤ 3.13 |
| Cn1c(=O)[nH]c2cccc(OC[C@]3(O)CCN(c4c(F)cc(Cl)cc4F)C[C@H]3O)c21 [Example 11] | ≤ 3.13 |
| O=C1CCc2c(OC[C@]3(O)CCN(c4c(F)cc(Cl)cc4F)C[C@H]3O)cccc21 [Example 17] | ≤ 3.13 |
| O[C@@H]1CN(c2c(F)cc(Cl)cc2F)CC[C@@]1(O)COc1ccc(Br)c2ccoc12 [Example 23] | ≤ 3.13 |
| OC1CCc2c(OC[C@]3(O)CCN(c4c(F)cc(Cl)cc4F)C[C@H]3O)cccc21 (stereo partly drawn) [Example 24, (3R,4R)-1-(4-chloro-2,6-difluorophenyl)-4-[(1-hydroxy-2,3-dihydro-1H-inden-4-yl)oxymethyl]piperidine-3,4-diol] | ≤ 3.13 |
| O[C@@H]1CN(c2c(F)cc(Cl)cc2F)CC[C@@]1(O)COc1cccc2[nH]ncc12 [Example 28] | ≤ 3.13 |
| Cc1noc2cccc(OC[C@]3(O)CCN(c4c(F)cc(Cl)cc4F)C[C@H]3O)c12 [Example 32] | ≤ 3.13 |
| O[C@@H]1CN(c2c(F)cc(Cl)cc2F)CC[C@@]1(O)COc1cccc2[nH]cnc12 [Example 34] | ≤ 3.13 |
| CN1Cc2c(cccc2OC[C@]2(O)CCN(c3c(F)cc(Cl)cc3F)C[C@H]2O)NC1=O [Example 41] | ≤ 3.13 |
| Cl.O[C@@H]1CN(c2c(F)cc(Cl)cc2F)CC[C@@]1(O)COc1ccc(F)c2c1CCCN2 [Example 44, (3R,4R)-1-(4-chloro-2,6-difluorophenyl)-4-[(8-fluoro-1,2,3,4-tetrahydroquinolin-5-yl)oxymethyl]piperidine-3,4-diol hydrochloride] | ≤ 3.13 |
| O[C@@H]1CN(c2ccc(Cl)cc2F)CC[C@@]1(O)COc1ccc(Cl)c2[nH]ncc12 [Example 47] | ≤ 3.13 |
| O=c1cnc2c(OC[C@]3(O)CCN(c4ccc(Br)cc4F)C[C@H]3O)cccc2[nH]1 [Example 50] | ≤ 3.13 |
| O=c1cnc2cccc(OC[C@]3(O)CCN(c4ccc(Cl)cc4F)C[C@H]3O)c2[nH]1 [Example 51] | ≤ 3.13 |
| Cn1c(=O)cnc2c(OC[C@]3(O)CCN(c4c(F)cc(Cl)cc4F)C[C@H]3O)cccc21 [Example 53, 1-methyl-5-[[(3R,4R)-1-(4-chloro-2,6-difluorophenyl)-3,4-dihydroxypiperidin-4-yl]methoxy]quinoxalin-2-one] | ≤ 3.13 |
| CC(=O)Nc1cc(F)ccc1OC[C@]1(O)CCN(c2c(F)cc(Cl)cc2F)C[C@H]1O [Example 62] | ≤ 3.13 |
| O=C1COCc2c(cccc2OC[C@]2(O)CCN(c3c(F)cc(Cl)cc3F)C[C@H]2O)N1 [Example 65] | ≤ 3.13 |
| O=C1CSCc2c(cccc2OC[C@]2(O)CCN(c3c(F)cc(Cl)cc3F)C[C@H]2O)N1 [Example 66] | ≤ 3.13 |
| O=C1Nc2cccc(OC[C@]3(O)CCN(c4ccc(Cl)cc4F)C[C@H]3O)c2CS1 [Example 68] | ≤ 3.13 |
| O=C1CCc2c(OC[C@]3(O)CCN(c4ccc(Br)cc4F)C[C@H]3O)ccnc2N1 [Example 71] | ≤ 3.13 |
| O=C1CSc2c(cccc2OC[C@]2(O)CCN(c3ccc(Cl)cc3F)C[C@H]2O)N1 [Example 76] | ≤ 3.13 |
| O=C1CCCc2c(OCC3(O)CCN(c4c(F)cc(Cl)cc4F)CC3)ccc(Cl)c2N1 [Example 79] | ≤ 3.13 |

| Structure (SMILES) | MIC [µg/mL] |
| --- | --- |
| O=C1COc2c(OCC3(O)CCN(c4c(F)cc(Cl)cc4F)CC3)ccc(Cl)c2N1 [Example 80] | ≤ 3.13 |
| O=C1CCCc2c(OC[C@]3(O)CCN(c4c(F)cc(Cl)cc4F)C[C@H]3O)ccc(Cl)c2N1 [Example 84] | ≤ 3.13 |
| O=C1CCc2c(OC[C@]3(O)CCN(c4c(F)cc(Cl)cc4F)C[C@H]3O)ccc(Cl)c21 [Example 90, 7-chloro-4-[[(3R,4R)-1-(4-chloro-2,6-difluorophenyl)-3,4-dihydroxypiperidin-4-yl]methoxy]-2,3-dihydroinden-1-one] | ≤ 3.13 |
| COC(=O)c1cc(Cl)ccc1OC[C@]1(O)CCN(c2c(F)cc(Cl)cc2F)C[C@H]1O [Example 92] | ≤ 3.13 |
| O=C1Cc2c(OC[C@]3(O)CCN(c4c(F)cc(Cl)cc4F)C[C@H]3O)ccc(Cl)c2N1 [Example 95] | ≤ 3.13 |
| OCc1cc(Cl)ccc1OC[C@]1(O)CCN(c2c(F)cc(Cl)cc2F)C[C@H]1O [Example 98, (3R,4R)-1-(4-chloro-2,6-difluorophenyl)-4-[[4-chloro-2-(hydroxymethyl)phenoxy]methyl]piperidine-3,4-diol] | ≤ 3.13 |
| CNC(=O)c1cc(Cl)ccc1OC[C@]1(O)CCN(c2c(F)cc(Cl)cc2F)C[C@H]1O [Example 101] | ≤ 3.13 |
| Cc1c(OC[C@]2(O)CCN(c3c(F)cc(Cl)cc3F)C[C@H]2O)ccc(Cl)c1NC=O [Example 105] | ≤ 3.13 |
| O[C@@H]1CN(c2c(F)cc(Cl)cc2F)CC[C@@]1(O)COc1ccc(Cl)c2[nH]c(=S)ccc12 [Example 108] | ≤ 3.13 |
| O=C1COc2c(OC[C@]3(O)CCN(c4c(F)cc(Cl)cc4F)C[C@H]3O)ccc(Cl)c2N1 [Example 111] | ≤ 3.13 |
| O[C@@H]1CN(c2c(F)cc(Cl)cc2F)CC[C@@]1(O)COc1ccc(Cl)c2[nH]ccc12 [Example 113] | ≤ 3.13 |
| NC(=O)Cc1cc(F)ccc1OC[C@]1(O)CCN(c2c(F)cc(Cl)cc2F)C[C@H]1O [Example 117, 2-[5-fluoro-2-[[(3R,4R)-1-(4-chloro-2,6-difluorophenyl)-3,4-dihydroxypiperidin-4-yl]methoxy]phenyl]acetamide] | ≤ 3.13 |
| O=C1Cc2c(OC[C@]3(O)CCN(c4ccc(Br)cc4F)C[C@H]3O)ccc(Cl)c2N1 [Example 120] | ≤ 3.13 |
| O=c1[nH]c2c(Cl)ccc(OC[C@]3(O)CCN(c4c(F)cc(Cl)cc4F)C[C@H]3O)c2s1 [Example 122] | ≤ 3.13 |
| Nc1nc2c(Cl)ccc(OC[C@]3(O)CCN(c4c(F)cc(Cl)cc4F)C[C@H]3O)c2s1 [Example 127, (3R,4R)-4-[(2-amino-4-chloro-1,3-benzothiazol-7-yl)oxymethyl]-1-(4-chloro-2,6-difluorophenyl)piperidine-3,4-diol] | ≤ 3.13 |
| O=C1NCc2c(OC[C@]3(O)CCN(c4ccc(Br)cc4F)C[C@H]3O)ccc(F)c2N1 [Example 131] | ≤ 3.13 |
| O=C1Nc2c(Cl)ccc(OC[C@]3(O)CCN(c4ccc(Cl)cc4F)C[C@H]3O)c2CO1 [Example 133] | ≤ 3.13 |
| O[C@@H]1CN(c2c(F)cc(Cl)cc2F)CC[C@@]1(O)COc1ccc(F)c2nc(Cl)sc12 [Example 135] | ≤ 3.13 |
| O=c1[nH]c2c(F)ccc(OC[C@]3(O)CCN(c4ccc(Br)cc4F)C[C@H]3O)c2s1 [Example 140] | ≤ 3.13 |
| O=C1Nc2cccc(OC[C@]3(O)CCN(c4c(F)cc(Cl)cc4F)C[C@H]3O)c2CO1 [Example 141] | ≤ 3.13 |
| O=C1Cc2c(OCC3(O)CCN(c4c(F)cc(Cl)cc4F)CC3)ccc(F)c2N1 [Example 145, 4-[[1-(4-chloro-2,6-difluorophenyl)-4-hydroxypiperidin-4-yl]methoxy]-7-fluoro-1,3-dihydroindol-2-one] | ≤ 3.13 |
| Cn1c(=O)c(=O)[nH]c2c(OC[C@]3(O)CCN(c4c(F)cc(Cl)cc4F)C[C@H]3O)ccc(F)c21 [Example 146] | ≤ 3.13 |
| O=c1[nH]c2c(F)ccc(OCC3(O)CCN(c4c(F)cc(Cl)cc4F)CC3)c2s1 [Example 147, 7-[[1-(4-chloro-2,6-difluorophenyl)-4-hydroxypiperidin-4-yl]methoxy]-4-fluoro-3H-1,3-benzothiazol-2-one] | ≤ 3.13 |
